Data as given in USRE40839E1 (The United States of America as represented by the …, priority 1992, dated 2009).

Tests used:
[1] = tested on: melanoma; conditions: 30 patients with melanoma; 250 mg/M^2 as 24 hour continuous infusion; cited from earlier work
[2] = tested on: refractory acute leukemia; conditions: cited from earlier work
[3] = tested on: breast cancer; test: 96 hour continuous infusion every 21 days in breast cancer patients; conditions: 70-140 mg/M^2/96 hrs every 21 days
[4] = tested on: breast cancer; conditions: 24 hour infusion at 250 mg/M^2; similar breast cancer patient group; cited from earlier work
[5] = tested on: mammalian cells; conditions: actively dividing cells; cited from earlier work
[6] = tested on: diffuse large cell lymphoma; test: 96 hour continuous infusion every 21 days in lymphoma patients; assay type: in vivo, human; conditions: 70-140 mg/M^2/96 hrs every 21 days
Text: This 96 hr continuous infusion was repeated every 21 days, while patients were monitored for a response after every two cycles.

[7] = tested on: patients; conditions: infusion times up to 24 hours; cited from earlier work
[8] = tested on: ovarian cancer; conditions: 34 patients with ovarian cancer; 250 mg/M^2 as 24 hour continuous infusion; cited from earlier work
[9] = 6 patients with diffuse large cell lymphoma

## CC(=O)O[C@H]1C(=O)[C@@]2(C)[C@H]([C@H](OC(=O)c3ccccc3)[C@]3(O)C[C@H](OC(=O)[C@H](O)[C@@H](NC(=O)c4ccccc4)c4ccccc4)C(C)=C1C3(C)C)[C@]1(OC(C)=O)CO[C@@H]1C[C@@H]2O [Taxol]
[1]
  objective response rate: 13%
[2]; 17 patients, 24 hour continuous infusion, 200 to 390 mg/M^2
  toxicity limiting further dose escalation: Severe mucositis
[2]; 17 patients, 24 hour continuous infusion, escalated from 200 to 390 mg/M^2
  maximum tolerated dose: 390 mg/M^2
[2]; of 17 patients
  patients with transient reductions in peripheral blood and bone marrow blasts: Nine
[3]; 11 breast cancer patients
  number of minor remissions (MR): 2 patients
  number of partial remissions (PR): 7 patients
  partial remission rate: 64%
  total response rate: 82%
[3]; breast cancer, prior doxorubicin or mitoxantrone regimen
  patients with positive response (PR + MR): 9 out of the 11
[4]
  response rate: 33%
[5]
  Taxol concentration that usually causes a significant increase in microtubule number, changes in cell shape and mitotic arrest: 50 Nm
[6]; [9]
  number of minor remissions (MR): 1 patients
  number of partial remissions (PR): 3 patients
  partial remission rate: 50%
[6]; diffuse large cell lymphoma
  patients in whom Taxol was active (PR + MR): 4 out of 6
[7]
  dose limiting toxicity: reversible myclosuppression
[8]
  major toxicities: neutropenia and peripheral neuropathy
  objective response rate: 21%
